Results taken from patent US20030017483A1, “Modulation of molecular interaction sites on RNA and other biomolecules” (priority 1998, published 2003).
In brackets after ≈: the same amount, converted by molar mass. Where two headings read alike, the source gives them in different places.

Experiments:
[1] = tested on: TAR RNA interaction with tat peptide; experiment: disruption of TAR RNA interaction with tat peptide; type: binding, HIV
[2] = molecular target: luciferase mRNA containing the TAR RNA structure in the 5′-UTR; experiment: wheat germ lysate translation of luciferase mRNA containing TAR RNA structure; type: biochemical, HIV; settings: luciferase mRNA with TAR RNA structure in the 5′-UTR, read-out: concentration reducing translation by 50%
Text: It is believed that stabilization of mRNA structures near the 5′-cap also could be effected by specific “small” molecules, and that such binding would reduce the translational efficiency of the mRNA. To test this hypothesis, a plasmid was constructed containing the luciferase message behind a 5′-UTR containing a 27-mer RNA construct of the HIV TAR stem-loop bulge whose structure had been determined by NMR. The resulting mRNA could be expressed and capped in a wheat germ lysate translation system supplemented with T7 polymerase following addition of m^7G to the lysate (see, FIG. 38A). Insertion of a 9-base leader before the TAR structure (HIVluc+9) enhanced the translational efficiency, presumably by allowing the pre-initiation complex to form. The helicase activity associated with the pre-initiation complex can transiently melt out the TAR RNA structure, and the message is translated (see, FIG. 38A).

[3] = tested on: luciferase mRNA (control luc+9); experiment: wheat germ lysate translation of control luciferase mRNA; type: biochemical; settings: control mRNA without TAR
Text: It is believed that stabilization of mRNA structures near the 5′-cap also could be effected by specific “small” molecules, and that such binding would reduce the translational efficiency of the mRNA. To test this hypothesis, a plasmid was constructed containing the luciferase message behind a 5′-UTR containing a 27-mer RNA construct of the HIV TAR stem-loop bulge whose structure had been determined by NMR.

[4] = tested on: TAR; settings: in words, FIG. 36
[5] = tested on: E. coli; experiment: high throughput screening assay for antibacterial activity; type: cell-based; settings: Escherichia coli; crude compounds, against E. coli; read-out: minimum inhibitory concentrations (MIC's)
Text: This activity was verified by manual solution synthesis of analytically pure material as described in Example 6 above, which had identical activity.

[6] = molecular target: 27-mer model RNA sequence of the 16S A-site; experiment: MASS assay (mass spectrometry binding affinity); settings: 27-mer model RNA of the 16S A-site
Text: One mass spectrometric method which is particularly useful when combined with the techniques of the foregoing commonly owned inventions provides the determination of specificity and affinity of ligands to RNA targets. MASS (multi target affinity/specificity screening) techniques can provide high throughput screening methods to analyze the specificity and affinity of ligands to molecular interaction sites of nucleic acids, especially RNA. […]
Binding site information can be obtained by comparing the gas phase fragmentation patterns of the free and complexed target while relative binding constants are derived from the relative abundance of complexes using a complex with a known Kd as an internal standard. With knowledge of the specificity and affinity of ligands to the molecular interaction site of a target RNA, the desired lead or ultimate compound for modulation of the RNA can be determined.
The compounds are screened for binding affinity using MASS or conventional high-throughput functional screens. […] The MASS assay was performed with the 27-mer model RNA sequence of the 16S A-site whose NMR structure has been determined. […]

[7] = tested on: luciferase reporter; experiment: transcription/translation assay based on expression of a luciferase plasmid; type: biochemical
Method: The compounds are screened for binding affinity using MASS or conventional high-throughput functional screens. The best scoring compounds from docking a 256-member library against the 16S A-site ribosomal RNA structure are shown in the table below. The MASS assay was performed with the 27-mer model RNA sequence of the 16S A-site whose NMR structure has been determined. The transcription/translation assay was based on expression of a luciferase plasmid.

[8] = molecular target: 27-mer RNA containing the A-site of the 16S rRNA; settings: cited from earlier work
[9] = tested on: 23S rRNA fragment / L11 protein fragment; experiment: L11/thiostrepton SPA assay; type: binding; settings: positive control, RNA under destabilizing conditions
Text: The mode of action of thiostrepton appears to be to stabilize a region of the 23S rRNA and by doing so prevent a structural transition in the L11 protein. Among the many assays that look at RNA/protein interactions, an SPA assay has been designed to look for small molecules that could be effective as thiostrepton ‘like’ agents. This assay uses a radiolabeled small fragment of the 23S rRNA, a biotinylated 75 amino acid fragment of the L11 protein that contains the 23S rRNA binding domain and thiostrepton. The folding conditions of the secondary and tertiary structures of the 23S rRNA fragment have been examined as have the binding conditions of the L11 fragment to the 23S rRNA. The L11-thiostrepton assay has been optimized so that the 23S rRNA fragment is in an unfolded state prior to the addition of compounds. Addition of the L11 fragment to this unfolded RNA results in no detectable binding interaction. The high throughput assay is run by mixing the 23S rRNA fragment, under destabilizing conditions, with compounds of interest, incubating this mixture, and then adding the L11 fragment. Streptavidin-coated SPA beads are added for binding detection. Thiostrepton is used as a positive control.

[10] = cited from earlier work

CNc1ccc(NCCO)c2c1C(=O)c1ccccc1C2=O [ACD 00001199]
concentration at which the interaction of TAR RNA with tat peptide is disrupted [1]: 1 µM | IC50 [2]: 50 µM | inhibition of translation of the luciferase mRNA [3]: some inhibition of translation at very high concentrations | IC50 values [4]: low

O=C(NO)[C@@H](Cc1ccc2ccccc2c1)NS(=O)(=O)c1ccc2ccccc2c1 [Compound 5-n-ii, (2R)-3-(2-naphthyl)-2-((2-naphthylsulfonyl)amino)propanehydroxamic Acid]
MIC [5]: 0.7 to 1.5 µM (≈ 0.294 to 0.631 µg/mL)

O=C(NO)[C@@H](Cc1ccc2ccccc2c1)NS(=O)(=O)c1ccc(Br)cc1 [Compound 5-n-vi, (2R)-2-(((4-bromophenyl)sulfonyl)amino)-3-(2-naphthyl)propanehydroxamic Acid]
MIC [5]: 3 to 6 µM (≈ 1.35 to 2.7 µg/mL)

NC[C@@H]1O[C@H](O[C@H]2[C@@H](O)[C@H](O[C@@H]3[C@@H](O)[C@H](N)C[C@H](N)[C@H]3O[C@H]3O[C@H](CO)[C@@H](O)[C@H](O)[C@H]3N)O[C@@H]2CO)[C@H](N)[C@@H](O)[C@@H]1O [Paromomycin]
Kd [6]: 0.5 µM | Activity: Inhibition of protein synthesis in transcription/translation assay for luciferase reporter [7]: 0.3 µM | Kd ([8]; 27-mer RNA containing the A-site of the 16S rRNA, known value, read-out: Kd, binding to the unpaired adenosine residues): 0.2 µM | Kd ([8]; standard, known from other experiments or literature, read-out: binding affinity for a test 27-mer RNA): ~1 µM

C=C(NC(=O)C(=C)NC(=O)c1csc(C2=N[C@@H]3c4csc(n4)[C@H]4NC(=O)c5csc(n5)[C@H]([C@](C)(O)[C@@H](C)O)NC(=O)[C@H]5CSC(=N5)/C(=C/C)NC(=O)[C@H]([C@@H](C)O)NC(=O)c5csc(n5)[C@]3(CC2)NC(=O)[C@H](C)NC(=O)C(=C)NC(=O)[C@H](C)NC(=O)[C@H]([C@@H](C)CC)N[C@@H]2C=Cc3c([C@H](C)O)cc(nc3[C@H]2O)C(=O)O[C@@H]4C)n1)C(N)=O [thiostrepton]
L11 fragment binding to 23S rRNA fragment (SPA signal) [9]: allows the L11 fragment to bind leading to the generation of a signal | solubility [10]: very poor solubility
